Type in all cases: cell-based, mouse
Experiment [1] deals with activated CD3+ T cells. The experiment can be described thus: Seahorse extracellular flux analysis (ECAR/OCR) of activated CD3+ T cells. The procedure:
Spleens and/or lymph nodes (LN) were collected from C57BL/6J, Pmel and OT-II mice and were processed into single-cell suspensions. CD3+, CD4+ and CD8+ T cells were negatively enriched using Mouse Pan T cell, CD4^+ T cell and CD8^+ T Cell Isolation Kits™, respectively according to the manufacturer's instructions. The purity of the isolated cells was confirmed by flow cytometry (>95%). Purified T cells were cultured in complete RPMI 1640 medium (Thermo Fisher Scientific) supplemented with 10% (vol/vol) fetal bovine serum (FBS, Biowest) and 1% (vol/vol) penicillin/streptomycin (P/S, Thomas Scientific Inc.). T cells were activated with plate-bound anti-CD3 antibody (5 μg/ml, 145-2C11, BioXCell) for the indicated time periods. […]
(§1) Extracellular acidification rate (ECAR) and oxygen consumption rate (OCR) were measured using the Seahorse XF analyzer (Agilent technologies). […] For GST, ECAR and OCR were measured under basal conditions and in response to 10 mM glucose, 1 μM oligomycin and 50 mM 2-DG successively to calculate basal glycolytic rate, glycolytic capacity (in response to oligomycin), and glycolytic reserve (glycolytic capacity-basal rate). […] Results were normalized to total protein quantified using Pierce™ BCA Protein Assay Kit (Thermo Fisher Scientific).

For experiment [2], the system named is CD3+ TILs isolated from B16F10 tumor nodules. Nature of the experiment: Seahorse ECAR of TILs isolated from s.c. B16F10 melanoma tumors. The following applies: TILs from s.c. B16F10 tumors in C57BL/6 mice, OSS vs. DMSO, FIG. 6F. On the procedure:
Anesthetized mice were injected subcutaneously (s.c.) into the hind limb with 2.5×10^5 B16F10 tumor cells in 200 μl of sterile PBS. Tumors were collected after 2 weeks and TILs were isolated for further analysis.
Lymphocytes from subcutaneous tumors were isolated by dicing the tissues followed by enzymatic digestion in PBS containing collagenase type 4 (2 mg/ml, Worthington Biochemical) and DNase I (0.25 mg/ml, Sigma-Aldrich) for 45 min with occasional shaking at 37° C. Cell suspensions were then twice filtered through 100 μm and 40 μm cell strainers (Thermo Fisher Scientific) to obtain single-cell suspension followed by a PBS wash and red blood cell lysis using RBC Lysis Buffer (Biolegend). […]
as §1

Experiment [3] relates to activated CD3+ T cells. Nature of the experiment: Western blot analysis of activated T cells. On the procedure:
Whole cell lysates were prepared using lysis buffer (Pierce RIPA buffer, Thermo Fisher Scientific) supplemented with Complete™ protease inhibitor cocktail and PhosSTOP phosphatase inhibitor cocktail (Roche Applied Science).
Cell lysates (20 μg) or IP samples were loaded onto 10% SDS-PAGE and separated by electrophoresis followed by semi-dry transfer into polyvinylidene fluoride membranes (Immun-Blot® PVDF membrane, Bio-Rad) using Trans-Blot Turbo transfer system (Bio-Rad). After transfer, the membranes were blocked at room temperature with Tris-buffered saline (TBS) containing 0.05% Tween-20 (TBST) and 5% (w/v) non-fat dry milk for 1 hour and then incubated overnight at 4° C. with a specific primary antibody (indicated below). The membranes were washed three times with TBST and then incubated for 1 hour with horseradish peroxidase (HRP)-conjugated goat […] IgG H&L (Abcam, #ab97051, 1:3,000) for regular western blotting analysis, or HRP-conjugated mouse anti-rabbit IgG light-chain specific (Cell Signaling, #93702, 1:1,000) for IP samples. After washing 3 times with TBST, bound antibodies were detected by chemiluminescence using the Pierce™ ECL Western Blotting Substrate and the Super Signal West Femto Maximum Sensitivity Substrate kits (Thermo Fisher Scientific). Image acquisition was performed with the Amersham imager 600 system (GE Healthcare Bio-Sciences).
Immunoblotting was performed using primary antibodies against: Sirt6, H3K9, acetylated-H3K9 and c-Myc (#9402, 1:1,000) from Cell signaling, LDH (#ab52488, 1:5,000), PFKP (#ab204131, 1:2,000), HK1 (#ab150423, 1:1,000), HIF-1α and beta-Actin from Abcam

Experiment [4] relates to activated CD3+ T cells. Nature of the experiment: RT-PCR mRNA levels in activated T cells. From the text: Total RNA was extracted using the RNeasy Mini Kit (Qiagen; cat. #74106) and reverse transcribed using iScript™ (Biorad). cDNAs were amplified using the “SsoAdvanced™ Universal SYBR® Green Supermix” kit (Biorad) in the CFX Connect™ Real-Time System (Biorad). Sense and antisense primers used were for mouse Sirt6, GLUT1, HK, PFK, LDH, GLS and ASCT2 (primers designed by Biorad and provided as a mixture, PrimePCR™ SYBR® Green Assay).

[5] abbreviates: activated CD3+ T cells, WB, FIG. 8J.
Where [6] appears, read: activated CD3+ T cells, FIG. 8K.

The text below walks through data of patent US20250000907A1, “ENGINEERED IMMUNE CELLS WITH REDUCED SIRT6 EXPRESSION” (H. LEE MOFFITT CANCER CENTER AND RESEARCH INSTITUTE, INC., priority 2021, published 2025).

`O=C(Nc1ccc(O)c(C(=O)O)c1)c1cccc(NC(=O)c2ccco2)c1` [OSS_128167]: in experiment [1] (CD3-stimulated CD3+ T cells, OSS 25 μM or 50 μM vs. vehicle (DMSO), FIG. 6A), the “glycolytic flux (ECAR)” value is on record as “profoundly increased”. In experiment [1] (activated T cells, pharmacologic inhibition, FIG. 6G), the “SRC in response to the mitochondrial decoupling agent (FCCP) (OCR)” value is listed as “increase”. Further, the “glycolytic activity of TILs (ECAR)” value in experiment [2] is “restored”. Also, in experiment [3] (setting [5]), the “Glut1 protein expression levels” value is given as “upregulation”, the “HK1 protein expression levels” value is “upregulation”, the “LDHA protein expression levels” value was “upregulation” and the “PFKP protein expression levels” value is reported as “upregulation”. Also, in experiment [3] (activated T cells, FIG. 8D), the H3K9 acetylation levels entry was “increased”, the HIF-1α expression levels entry is listed as “no effect” and the c-Myc expression levels entry is recorded as “no effect”. In experiment [4] (setting [6]), the “mRNA expression levels of glutaminase (GLS)” value is listed as “increased” and the “mRNA expression levels of glutamine transporter (ASCT2)” value is listed as “increased”. Also, in experiment [4] (activated T cells, FIG. 8G), the “mRNA expression levels of glucose transporter (Glut1)” value is recorded as “increased”, the “mRNA expression levels of hexokinase (HK1)” value was “increased”, the “mRNA expression levels of lactate dehydrogenase A (LDHA)” value is recorded as “increased” and the “mRNA expression levels of phosphofructokinase P (PFKP)” value is “increased”.
